From ChEMBL document CHEMBL1201862, “PubChem BioAssay data set” (2004) come the findings set out here.

The source made the active and inactive calls.

The target in test [1] is T1, Short transient receptor potential channel 4 (Mus musculus, UniProt Q9QUQ5).
T1 sequence (Q9QUQ5 whole entry): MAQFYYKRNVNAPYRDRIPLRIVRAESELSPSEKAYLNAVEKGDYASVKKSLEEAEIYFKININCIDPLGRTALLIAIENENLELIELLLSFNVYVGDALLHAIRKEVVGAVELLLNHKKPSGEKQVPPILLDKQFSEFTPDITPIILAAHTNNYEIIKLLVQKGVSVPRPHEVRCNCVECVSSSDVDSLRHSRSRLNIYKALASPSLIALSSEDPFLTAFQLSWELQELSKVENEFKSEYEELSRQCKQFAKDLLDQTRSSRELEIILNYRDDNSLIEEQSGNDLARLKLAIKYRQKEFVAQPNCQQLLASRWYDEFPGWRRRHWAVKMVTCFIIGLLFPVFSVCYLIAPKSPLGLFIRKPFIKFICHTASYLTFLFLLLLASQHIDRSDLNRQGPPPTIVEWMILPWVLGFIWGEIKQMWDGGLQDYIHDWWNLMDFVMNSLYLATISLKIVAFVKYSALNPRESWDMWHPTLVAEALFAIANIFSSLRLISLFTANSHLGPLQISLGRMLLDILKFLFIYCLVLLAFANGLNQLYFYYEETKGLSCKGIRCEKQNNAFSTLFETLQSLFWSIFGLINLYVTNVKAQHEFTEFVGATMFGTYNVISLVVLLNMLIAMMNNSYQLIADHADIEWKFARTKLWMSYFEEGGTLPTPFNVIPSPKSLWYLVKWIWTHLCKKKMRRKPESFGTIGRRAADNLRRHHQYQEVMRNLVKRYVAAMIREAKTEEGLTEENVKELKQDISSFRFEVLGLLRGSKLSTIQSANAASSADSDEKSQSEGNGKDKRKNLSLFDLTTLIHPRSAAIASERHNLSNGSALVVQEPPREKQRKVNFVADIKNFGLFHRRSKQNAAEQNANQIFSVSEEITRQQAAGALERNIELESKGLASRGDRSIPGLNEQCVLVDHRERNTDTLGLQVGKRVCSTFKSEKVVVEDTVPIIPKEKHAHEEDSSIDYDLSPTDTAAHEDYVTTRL
The test is described as follows: SAR Analysis for the identification of selective inhibitors of the transient receptor potential cation channel C4 (TRPC4): TRPC4 Serotonin Receptor CRC MPD assay. [Related pubchem assays (depositor defined):AID2247, AID2256]. Type of test: functional.

The target in test [2] is T1, Short transient receptor potential channel 4. The test is described as follows: SAR Analysis for the identification of selective inhibits of the transient receptor potential cation channel C4 (TRPC4): Automated Electrophysiology_2. [Related pubchem assays (depositor defined):AID2256]. Type of test: functional.
The target is the same in test [3]. As to the kind of experiment: potency of mouse TRPC4 calcium flux blockers – cell-based, HEK293 TRPC4/mu-opioid, DAMGO stimulus, Fluo-4, dose response (AID 492994). The format is functional. For orientation: Calcium assays in cells follow changes in intracellular calcium, usually with a dye or a luminescent sensor.
Test [4] deals with Short transient receptor potential channel 6 (Mus musculus, UniProt Q61143). As to the kind of experiment: mouse TRPC6 channel blockers, concentration series – HEK293 cells, membrane potential dye, IC50, selectivity assay for selective TRPC4 inhibitor project, dose response (AID 492987). The format is functional, cell-based.
Test [5] concerns the target T1, Short transient receptor potential channel 4. As to the kind of experiment: mouse TRPC4 block via Gq-coupled stimulation – cell-based, acetylcholine stimulus, HEK293 TRPC4, Fluo-4, SAR follow-up (AID 492996). The format is functional.
For the next test, the target named is Genome polyprotein (dengue virus type 2, UniProt P29990). The test is described as follows: flavivirus cap methylation enzyme inhibition – biochemical, confirmation dose response, primary screen (AID 588689). Type of test: functional.
Another test has as its target Major prion protein (Homo sapiens, UniProt P04156). The format is functional, cell-based.
Test [6] deals with Vero. The test is described as follows: cells. As to conditions: Chlorocebus sabaeus. Type of test: functional.
The target in test [7] is Bifunctional protein GlmU (Mycobacterium tuberculosis, UniProt P9WMN3). The test is described as follows: Inhibitors of Mycobacterial Glucosamine-1-phosphate acetyl transferase (GlmU). Secondary screen. Details: species or system Mycobacterium tuberculosis H37Rv.
Test [8] relates to Vero. As to the kind of experiment: cells. Type of test: functional, cell-based. To be noted: Chlorocebus sabaeus.
For test [9], the system named is Vero. As to the kind of experiment: viability of Vero cells under compound – cytotoxicity control for flavivirus capping enzyme inhibitors (AID 588742). Type of test: functional. To be noted: Chlorocebus sabaeus.
The next test has as its target Phospholipase D2 (Homo sapiens, UniProt O14939). As to the kind of experiment: cellular phospholipase D2 inhibition IC50 – cell-based, dose response (AID 602147).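 Note: cellular assay in HEK293 cells overexpressing GFP-tagged PLD2.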 Type of test: functional.
The target of another test is Phospholipase D1 (Homo sapiens, UniProt Q13393). As to the kind of experiment: cellular phospholipase D1 inhibition IC50 – cell-based, dose response (AID 602151).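 Note: cellular PLD1 assay in Calu-1 cells stimulated with PMA.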 Type of test: functional.
Test [10] has as its target Glycogen synthase kinase-3 beta (Homo sapiens, UniProt P49841). As to the kind of experiment: Inhibition of Human GSK-3 beta Activity Measured in Biochemical System Using Microfluidics - 2063-05_Inhibitor_Dose_DryPowder_Activity_Set2. [Related pubchem assays (depositor defined):AID2709].
Test [11] concerns the target Cyclin-dependent kinase 5/CDK5 activator 1 (Homo sapiens, UniProt Q00535). As to the kind of experiment: human CDK5 activity blockade – biochemical, microfluidic mobility shift, dry powder, selectivity assay for GSK-3 alpha inhibitor project, dose response (AID 588430).
Test [12] has as its target Glycogen synthase kinase-3 alpha (Homo sapiens, UniProt P49840). The test is described as follows: Inhibition of Human GSK-3 alpha Activity Measured in Biochemical System Using Microfluidics - 2063-06_Inhibitor_Dose_DryPowder_Activity_Set2. [Related pubchem assays (depositor defined):AID2709].
The test system of another test is CHO-K1. As to the kind of experiment: Counterscreen for antagonists of the orexin 1 receptor (OX1R; HCRTR1): Homogeneous time resolved fluorescence (HTRF)-based cell-based dose response assay to identify antagonists of the parental CHO-K1 cell line. [Related pubchem assays (depositor defined):AID434989, AID435008, AID463079, AID485270, AID492963, AID492964, AID492965, AID493232, AID504699, AID504701]. To be noted: Cricetulus griseus. The format is functional. A general note: Counterscreens check selectivity or assay interference.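 Note: potency for inhibition of ATP-stimulated IP1 production as antagonists.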

The target of test [13] is T2, Orexin/Hypocretin receptor type 1 (Homo sapiens, UniProt O43613). The test is described as follows: Fluorescence-based cell-based high throughput dose response assay for antagonists of the orexin 1 receptor (OX1R; HCRTR1). [Related pubchem assays (depositor defined):AID434989, AID435008, AID463079, AID485270, AID492963, AID492964, AID492965, AID493232, AID504717, AID504718]. Type of test: functional.

Test [14] deals with T2, Orexin/Hypocretin receptor type 1. The test is described as follows: Homogeneous Time Resolved Fluorescence (HTRF)-based cell-based high throughput dose response assay for antagonists of the orexin 1 receptor (OX1R; HCRTR1). [Related pubchem assays (depositor defined):AID434989, AID435008, AID463079, AID485270, AID492963, AID492964, AID492965, AID493232, AID504717, AID504718]. The format is functional. (TR-FRET usually uses a lanthanide donor and a delayed reading to cut background.)

Test [15] deals with T3, Orexin receptor type 2 (Homo sapiens, UniProt O43614). As to the kind of experiment: Counterscreen assay for antagonists of the orexin 1 receptor (OX1R; HCRTR1): Homogeneous Time Resolved Fluorescence (HTRF)-based cell-based dose response assay for antagonists of the orexin 2 receptor (OX2R; HCRTR2), run by assay provider. The format is functional.
The nature of test [16]: Counterscreen for antagonists of the orexin 1 receptor (OX1R; HCRTR1): Fluorescence-based cell-based high throughput dose response assay to identify antagonists of the parental CHO cell line. [Related pubchem assays (depositor defined):AID434989, AID435008, AID463079, AID485270, AID492963, AID492964, AID492965, AID493232, AID504699, AID504701]. Type of test: functional.

For test [17], the target named is T3, Orexin receptor type 2. The test is described as follows: Counterscreen assay for antagonists of the orexin 1 receptor (OX1R; HCRTR1): Fluorescence-based cell-based dose response assay for antagonists of the orexin 2 receptor (OX2R; HCRTR2), run by assay provider. Type of test: functional.

The term IC50 denotes the concentration that inhibits the measured activity by half. Consider `Cc1cc(N2CCCC2)nc2ccc(F)cc12`, for which the IC50 in [1] was 1.41 µM (active); in [2] it was 3.94 µM (active); in [3], 0.93 µM (active); in [4] it was 7.76 µM (active); in [5], 17.4 µM (active).
The term CC50 denotes the concentration at which the toxic effect on the cells reaches its halfway point. Regarding `O=c1oc2ccccc2c(O)c1[C@H]1c2ccc(O)cc2Oc2c1c(=O)oc1ccccc21`, the 50% inhibitory concentration (IC50) at Genome polyprotein is 80.7 µM (active); on Major prion protein it was 9.01 µM (active); in [7] it was 117 µM (active); with Vero [8], > 25 µM (active); in “cells”, 124 µM (inactive). Also, the CC50 is > 25 µM (active) in the test with Vero [6] and > 40 µM (active) in the test on Vero [9].
`C[C@@H](CN1CCC(n2c(=O)[nH]c3ccccc32)CC1)NC(=O)c1ccc2ncccc2c1`: the IC50 is 4.1 µM (active) at Phospholipase D2 and 0.017 µM (active) at Phospholipase D1.
By AC50 is commonly meant the concentration at which the activity in the assay is half-maximal. Turning to `CCCN(CCC)Cc1c(C(=O)N/N=C/c2ccoc2)nnn1-c1nonc1N`, the AC50 was 0.457 µM (active) in test [10], 40.6 µM (active) in [11] and 1.24 µM (active) in test [12].
Regarding `N#CCSc1nc(-c2ccccc2)nc2ccccc12`, the IC50 was > 66.3 µM (inactive) in the test on CHO-K1; > 49.8 µM (inactive) in [13]; 2.84 µM (active) in test [14]; > 50 µM (inactive) on Orexin receptor type 2 [15]; > 49.8 µM (inactive) in test [16]; > 88.8 µM (inactive) on Orexin receptor type 2 [17].
